Experimental findings from patent publication US20210379046A1, “Methods of Treating Diseases Using Kinase Modulators” (Memorial Sloan Kettering Cancer Center, priority 2018, published 2021) are described below.

The structures appear in SMILES notation.

In experiment [1] the test system is TPC1 cells. The experiment can be described thus: RNA-seq of TPC1 cells after RET inhibitor treatment. It counts as cell-based, human. The settings on record: TPC1, 72 hours. As for the experimental part:
Purified polyA mRNA was subsequently fragmented, and first and second strand cDNA synthesis performed using standard Illumina mRNA TruSeq library preparation protocols. Double stranded cDNA was subsequently processed for TruSeq dual-index Illumina library generation. For sequencing, pooled multiplexed libraries were run on a HiSeq 2500 machine on RAPID mode. Approximately 10 million 76 bp single-end reads were retrieved per replicate condition. Resulting RNA-Seq data was analyzed by removing adaptor sequences using Trimmomatic, aligning sequencing data to GRCh37.75(hg19) with STAR, and genome wide transcript counting using HTSeq to generate a RPKM matrix of transcript counts. This RPKM matrix was further log (log 2) transformed and normalized per gene to obtain the Z-score. Differential gene expression was analyzed by looking at fold changes between experimental conditions.

Experiment [2] has as its system TPC1 cells. Nature of the experiment: Mass spectrometry of eluted HLA class I presented peptides, TPC1 cells. It counts as cell-based, human. As for the experimental part: After 72 hrs, cells were harvested, washed, lysed. The lysate was run through an activated Sepharose-CNBr column coupled to the W6/32 antibody to bind HLA-A,B,C from the cell. The peptides bound by those HLAs and captured on the column were then eluted and mass spectrometry was run on those peptides.
Immunopurification affinity columns were prepared as described previously (Bassani-Sternberg et al., 2015, Mol Cell Proteomics 14(3):658-673). In brief, 40 mg of Cyanogen bromide-activated-Sepharose® 4B (Sigma-Aldrich, Cat #C9142) was activated with 1 mM hydrochloric acid (Sigma-Aldrich, Cat #320331) for 30 min. Subsequently, 0.5 mg of W6/32 antibody (BioXCell, BE0079; RRID: AB 1107730) was coupled to sepharose in presence of binding buffer (150 mM sodium chloride, 50 mM sodium bicarbonate, pH 8.3; sodium chloride: Sigma-Aldrich, Cat #S9888, sodium bicarbonate: Sigma-Aldrich, Cat #56014) for at least 2 hours at room temperature. Sepharose was blocked for 1 h with glycine (Sigma-Aldrich, Cat #410225). Columns were equilibrated with PBS for 10 min. […]. Afterwards, cells were lysed in 1 ml 1% CHAPS (Sigma-Aldrich, Cat #C3023) in PBS, supplemented with 1 tablet of protease inhibitors (cOmplete, Cat #11836145001) for 1 hour at 4° C. This lysate was spun down for 1 hour at 20,000 g at 4° C. Supernatant was run over the affinity column through peristaltic pumps at 1 ml/min overnight at 4° C. Affinity columns were washed with PBS for 15 min, run dry, and HLA complexes subsequently eluted three times with 200 μl 1% trifluoracetic acid (TFA, Sigma/Aldrich, Cat #02031). For separation of HLA ligands from their HLA complexes tC18 columns (Sep-Pak tC18 1 cc VacCartridge, 100 mg Sorbent per Cartridge, 37-55 μm Particle Size, Waters, Cat #WAT036820) were prewashed with 80% acetonitrile (ACN, Sigma-Aldrich, Cat #34998) in 0.1% TFA and equilibrated with two washes of 0.1% TFA. Samples were loaded, washed again with 0.1% TFA and eluted in 400 μl 30% ACN in 0.1% TFA. Sample volume was reduced by vacuum centrifugation for mass spectrometry analysis.
Samples were analyzed by a high resolution/high accuracy LC-MS/MS (Lumos Fusion, Thermo Fisher). Peptides were desalted using ZipTips (Sigma Millipore, Cat. #ZTC18S008) according to manufactures instructions and concentrated using vacuum centrifugation prior to being separated using direct loading onto a packedin-emitter C18 column (75 um ID/12 cm, 3 μm particles, Nikkyo Technos Co., Ltd. Japan). The gradient was delivered at 300 nl/min increasing linear from 2% Buffer B (0.1% formic acid in 80% acetonitrile)/98% Buffer A (0.1% formic acid) to 30% Buffer B/70% Buffer A, over 70 minutes. MS and MS/MS were operated at resolutions of 60,000 and 30,000, respectively. Only charge states 1, 2 and 3 were allowed. 1.6 Th was chosen as the isolation window and the collision energy was set at 30%. For MS/MS, the maximum injection time was 100 ms with an AGC of 50,000.
Mass spectrometry data was processed using Byonic software (version 2.7.84, Protein Metrics, PaloAlto, Calif.) through a custom-built computer server equipped with 4 Intel Xeon E5-4620 8-core CPUs operating at 2.2 GHz, and 512 GB physical memory (Exxact Corporation, Freemont, Calif.). Mass accuracy for MS1 was set to 10 ppm and to 20 ppm for MS2, respectively. Digestion specificity was defined as unspecific and only precursors with charges 1, 2, and 3 and up to 2 kDa were allowed. Protein FDR was disabled to allow complete assessment of potential peptide identifications. Oxidization of methionine, N-terminal acetylation, phosphorylation of serine, threonine and tyrosine were set as variable modifications for all samples. All samples were searched against the UniProt Human Reviewed Database (20,349 entries, uniprot.org, downloaded June 2017). […]

Experiment [3] deals with TPC1 cells. The experiment can be described thus: Flow cytometry of cell surface HLA and checkpoint ligands on TPC1 cells. It counts as cell-based, human. The note with it: TPC1, 100 nM, 72 hours. How it is done:
(§1) If adherent cells, they were seeded one day before treatment.
(Flow cytometry measures light scatter and fluorescence of single cells or particles in a stream.)

The subject of another experiment is pERK in Karpas 299 cells. Nature of the experiment: Western blot of pERK in Karpas 299 cells. The settings on record: Karpas 299, 3 hrs. The class given is cell-based, human. How it is done: (§2) Cells were seeded in a 60 mm dish or 6 well plates. After the appropriate time point, cells were harvested and lysed and protein was quantified by a Lowry assay (Bio-Rad DC Protein Assay; #5000116). Protein levels were normalized and run on SDS PAGE gels (Bio-Rad). Protein was transferred to a nitrocellulose membrane using semi-dry transfer. Membrane was blocked and incubated with respective antibodies. When needed, secondary antibodies with HRP were incubated for 1 hr.
(§3) Cells were seeded in a 60 mm dish or 6 well plates. After the appropriate time point, cells were harvested, lysed in RIPA buffer (Thermo Instruments) and protein concentration was quantified by a Lowry assay (using the Bio-Rad DC Protein Assay; #5000116 on a Spectramax device from Molecular Devices). Protein loading levels were equalized per lane and separated on SDS gels (Bio-Rad). Protein was transferred to a nitrocellulose membrance using semi-dry transfer (BioRad). Membranes were blocked with Omniblock (American Bio) and incubated with respected antibodies. When needed, secondary antibodies with HRP were incubated for 1 hr.
For orientation: In western blotting, separated proteins are transferred to a membrane and probed.

A further experiment deals with Karpas299 cells. Nature of the experiment: Luminex cytokine secretion, Karpas299 cells. The note with it: Karpas299, 100 nm alectinib. The class given is cell-based, human. How it is done: Supernatant media were harvested after treatment and analyzed by the Luminex device (Luminex Corporation, Austin, Tex.) for relevant cytokine secretion. […] On the left side of each panel is data after 24 hours. On the right side of each panel is data after 48 hours. […] The data points shown in this figure are in pairs for each condition. The data point pairs for each time point are, from left to right: DMSO, Rux, Alec, IFNg, and IFNg+Rux.

Another experiment relates to Karpas 299 tumors. The experiment can be described thus: Karpas 299 subcutaneous tumors in mice, tumor HLA and PD-L1 by flow cytometry. The class given is in vivo. As for the experimental part:
Female NSG (NOD.Cg-Prkdc^scidIl2rg^tm1Wj1/SzJ) and NRG (NOD.Cg-Rag1^tm1MomIl2rg^tm1Wj1/SzJ) mice were purchased from the Jackson Laboratory or MSKCC breeding facility at 5-10 weeks old. For RET and ALK experiments, 2.5-6×10^6 tumor cells were subcutaneously injected into the flank of mice and when tumors were palpable, mice were treated daily with drug or vehicles through oral gavage. At day 7, tumors were harvested and flow cytometry was run to determine effect of inhibitors on HLA and PD-L1 on the tumor cells.
The highly immunodeficient NRG (NOD-Rag1null IL2rgnull) mice were subcutaneously injected with 2.5×10^6 luciferase tagged TPC1 cells in their right flank. […] Afterwards, cells were immediately harvested and stained with antibodies against HLA-A*02:01 and HLA-ABC.
All animal experiments were conducted in accordance with and the approval of the MSKCC IACUC (Institutional Animal Care and Use Committee) protocols. Female NSG (NOD. Cg-Prkdc^scidIl2rg^tm1Wj1/SzJ) and NRG (NOD.Cg-Rag1^tm1MomIl2rg^tm1Wj1/SzJ) mice were purchased from the Jackson Laboratory at 5-10 weeks old. For experiments in vivo with RET and ALK, 2.5-6×10^6 tumor cells in PBS were subcutaneously injected into the flank of mice. When tumors were palpable (2-3 mm), mice were treated daily with drugs or vehicles through oral gavage of drugs in 200 ul of water. At day 4 or 7, tumors were harvested and flow cytometry was conducted to determine the effect of inhibitors on HLA and PD-L1 on the tumor cells. […] TPC1 cells were transduced with luciferase and GFP on an SFG vector and this allowed gating of the tumor cells in flow cytometry.

The next experiment relates to Karpas 299 cells. Nature of the experiment: Flow cytometry of cell surface HLA and checkpoint ligands on Karpas 299 cells. The class given is cell-based, human. How it is done: as §1
The subject of another experiment is pERK in SUDHL-1 cells. Nature of the experiment: Western blot of pERK in SUDHL-1 cells. It counts as cell-based, human. The note with it: SUDHL-1, 3 hrs. As for the experimental part:
as §2, §3

Another experiment concerns SUP-M2 cells. The experiment can be described thus: PD-L1 levels in vitro on SUP-M2 cells.
The next experiment has as its system SUDHL-1 cells. The experiment can be described thus: Flow cytometry of cell surface HLA on SUDHL-1 cells. The class given is cell-based, human. The settings on record: SUDHL-1, 72 hrs, increasing concentrations. How it is done: as §1
The mark [4] stands for this setting: TPC1, 10 nM AST487 or 100 nM cabozantinib.
[5] abbreviates: Karpas 299 tumors, daily oral gavage.

Experimental for SUP-M2 cells: 5×10^4 cells were seeded in a 12 well plate and treated with drug for 72 hrs. Adherent cells were seeded one day before treatment. At 72 hrs, cells were harvested, washed with PBS and incubated on ice with appropriate fluorophore conjugated antibodies diluted in FACS buffer for 1 hr. Gating strategy: Cells were then washed and incubated 30 min with a viability dye (propidium iodide at 1 ug/mL) and live cells only were analyzed by on a Guava flow cytometer with FlowJo software.

For `COc1cc2nccc(Oc3ccc(NC(=O)C4(C(=O)Nc5ccc(F)cc5)CC4)cc3)c2cc1OC` [cabozantinib], in the experiment with TPC1 cells [1], the “genes upregulated at least two-fold” value turned out to be 50. Moreover, the “runs TEIPP peptide was found in (n = 3)” value with TPC1 cells [2] (ALFSFVTAL (SEQ ID NO: 11)) is 0; in the experiment with TPC1 cells [2] (FLGPWPAAS (SEQ ID NO: 12)), 1; in the experiment with TPC1 cells [2] (FLSELQYYL (SEQ ID NO: 13)), 0; in the experiment with TPC1 cells [2] (FLYPFLSHL (SEQ ID NO: 14)) it was 0; in the experiment on TPC1 cells [2] (ILEYLTAEV (SEQ ID NO: 15)), 0; in the experiment on TPC1 cells [2] (LLALAAGLAV (SEQ ID NO: 16)), 0. Further, the “runs TEIPP peptide was found in (n = 3)” value in the experiment with TPC1 cells [2] (LLLDVPTAAV (SEQ ID NO: 17)) came out at 1; in the experiment on TPC1 cells [2] (LLLSAEPVPA (SEQ ID NO: 18)) it was 0; in the experiment with TPC1 cells [2] (LLWGRQLFA (SEQ ID NO: 19)), 0; in the experiment with TPC1 cells [2] (LSEKLERI (SEQ ID NO: 20)) it was 0; in the experiment with TPC1 cells [2] (LTLLGTLWGA (SEQ ID NO: 21)) it was 0; in the experiment on TPC1 cells [2] (SVLWLGALGL (SEQ ID NO: 22)), 0. Besides, the “runs TEIPP peptide was found in (n = 3)” value with TPC1 cells [2] (TLLGASLPA (SEQ ID NO: 23)), with TPC1 cells [2] (VIIKPLVWV (SEQ ID NO: 24)), in the experiment with TPC1 cells [2] (VLAVFIKAV (SEQ ID NO: 25)) and in the experiment on TPC1 cells [2] (VLLDHLSLA (SEQ ID NO: 26)) was 0 in each case. For the same compound, the “new peptides (only peptides found in all three runs counted)” value in the experiment with TPC1 cells [2] (setting [4]) worked out at 492. Besides, in the experiment on TPC1 cells [2] (setting [4]), the “unique peptides not present in the DMSO group (found in at least one run)” value amounted to 1642. The unique ligands presented with TPC1 cells [2] (TPC1, 10 nM AST487 or 100 nM cabozantinib, three runs pooled, DMSO 4211) was found to be 4850. For the same compound, the “increase in unique peptides vs DMSO” value in the experiment on TPC1 cells [2] (TPC1, three runs pooled) is 15%. Also, the “unique HLA ligands detected in all 3 runs” value in the experiment on TPC1 cells [2] (TPC1, DMSO 195) is listed as 639. For the same compound, in the experiment with TPC1 cells [3], the “increase in surface HLA (pan-HLA)” value is given as about 4 fold. In the experiment on TPC1 cells [3], the “increase in surface HLA-A*02” value came out at 4 fold.

Consider `CCc1cc2c(cc1N1CCC(N3CCOCC3)CC1)C(C)(C)c1[nH]c3cc(C#N)ccc3c1C2=O` [alectinib], for which the pERK levels entry in the experiment with pERK in Karpas 299 cells is given as “shut down pERK expression”. In the experiment on Karpas299 cells, the “IFNα, IFNγ, IL4 secretion” value is “had no effect on IFNα, IFNγ, IL4”; the “IL6 and TNFα secretion” value is “reduced IL6 and TNFα secretion”. Besides, in the experiment with Karpas 299 tumors (Karpas 299 tumors in NSG mice), the “drop of PD-L1” value is given as “approximately 75%”. In the experiment on Karpas 299 tumors (setting [5]), the “tumor PD-L1 levels in vivo” value is listed as “PD-L1 decreased with increasing doses” and the “tumor cell surface HLA-A,B,C in vivo” value was “increased modestly in a dose-dependent manner”. In the experiment on Karpas 299 cells (Karpas 299), the “PD-L1 levels in vitro” value was “dramatic decreases in PD-L1 were seen in vitro” and the “surface HLA-E levels” value was “did not change”. For the same compound, the “cell surface HLA-A,B,C” value in the experiment on Karpas 299 cells (Karpas 299, 72 hrs, increasing concentrations) is listed as “upregulates cell surface HLA”. The “HLA-A02 (BB7-FITC) surface level” value with Karpas 299 cells (Karpas299, alectinib 100 nM, 72 hours) is given as “led to upregulation of HLA”. Besides, the pERK levels result in the experiment on pERK in SUDHL-1 cells is recorded as “shut down pERK expression”. In addition, the “PD-L1 levels in vitro” value in the experiment on SUP-M2 cells was “dramatic decreases in PD-L1 were seen in vitro”. In addition, in the experiment on SUDHL-1 cells, the “cell surface HLA-A,B,C” value is “upregulates cell surface HLA”.
